# How the values were obtained:
# [1] = system: Caco-2 cells; experiment: Caco-2 study, Permeability (%) of lipidated peptides (Example 3); assay type: in vitro ADME, human; conditions: 0.1 mg/mL peptide
# Description: The Caco-2 cell line is a continuous cell line of heterogeneous human epithelial colorectal adenocarcinoma cells, which when cultured under specific conditions, become differentiated and polarized such that their phenotype, morphologically and functionally, resembles the enterocytes lining the small intestine. Caco-2 cells express tight junctions, microvilli, and a number of enzymes and transporters that are characteristic of such enterocytes. Caco-2 cells are most commonly used as a tight junction monolayer that provides a physical and biochemical barrier to the passage of drugs and thus serves as an in vitro model of the human small intestinal mucosa to predict the absorption of orally administered drugs. Caco-2 permeability assays were performed by Cyprotex US, LLC (MA, USA) to assess the efficacy of different permeation enhancers. Caco-2 cells were grown on Transwell filters until a transepithelial electric resistance of ˜1000 ohms/cm^2 was achieved. The cells were incubated for three hours with media containing test samples on the apical (top) side of the cell layer, and with blank media on the basolateral (lower) side of the cell layer. Media from the apical and basolateral sides was collected separately after three hours and evaluated for the amount of peptide present on each side. Table 2 gives the permeability coefficient (Papp) of the various test samples, which include the SEQ ID NO:3 GLP-1 peptide in the presence of different excipients.
# A following Caco-2 study was performed to evaluate the permeability of different peptides in the presence of various permeation enhancers. Permeability (%) was calculated by dividing the cumulative amount of molecules transported with the original loading amount. Concentrations of peptides in starting sample and apical and basal solutions after incubation for pre-determined periods were analyzed by HPLC. Sodium chenodeoxycholate at 25 mg/mL effected the highest permeability of each tested peptide (Table 4).
# [2] = Canine site of absorption study, IntelliCap, SEQ ID NO:5 solution formulations (Example 11); assay type: in vivo, Beagle dogs; conditions: for bioavailability / AUC(0-t) / Cmax / Tmax: dog; for bioavailability: plasma; for AUC(0-t) / Cmax / Tmax: in vivo
# Description: The IntelliCap® system, an electronic oral drug delivery and monitoring device, was used to determine regional absorption for solution formulations. In the form of a capsule, the IntelliCap® incorporates a microprocessor, battery, pH sensor, temperature sensor, radio frequency (RF) wireless transceiver, fluid pump, and drug reservoir. The IntelliCap® system can determine the drug's position in the gastrointestinal (GI) tract by a pH monitoring sensor in the capsule, thereby eliminating the need for in vivo imaging. This system was employed to assess the site of absorption of GLP-1 peptide analogs in the GI tract following oral delivery to canines (Beagle dogs). Solution formulations without permeation enhancer excipients were used as intravenous (IV) and subcutaneous (SC) controls in the study. In brief, solution formulations were prepared and transferred to the IntelliCap® capsule which was dosed to canines, wherein the formulation was released at a specific site in the GI tract.
# An additional site of absorption study was performed to evaluate the best site of absorption of the SEQ ID NO:5 GLP-1 peptide analog solution formulations after oral administration of IntelliCap capsules to canines (Beagle dogs). Delivery of the SEQ ID NO:5 peptide to the proximal small bowel (after pylorus passage), distal small bowel (before ileocecal passage), and proximal colon (after ileocecal passage) were studied.
# [3] = physchem
# Description: A known amount of the permeation enhancer, the peptide, or both were combined with increasing amounts of buffer until the permeation enhancer and/or the peptide were completely solubilized.
# [4] = Intravenous, 0.03 mg/kg, 0.3 mg/mL peptide in 50 mM Tris, 150 mM Mannitol, 0.02% PS80, pH 8.0
# [5] = IntelliCap, Distal small bowel, 0.81 mg/kg, 12 mg/mL peptide, 25 mg/mL Na CDC, 12.5 mg/mL PG, pH 8.0
# [6] = IntelliCap, Proximal colon, 0.85 mg/kg, 12 mg/mL peptide, 25 mg/mL Na CDC, 12.5 mg/mL PG, pH 8.0
# [7] = IntelliCap, Proximal small bowel, 0.86 mg/kg, 12 mg/mL peptide, 25 mg/mL Na CDC, 12.5 mg/mL PG, pH 8.0
# [8] = sc, Subcutaneous, 0.03 mg/kg, 0.3 mg/mL peptide in 50 mM Tris, 150 mM Mannitol, 0.02% PS80, pH 8.0
compound,measurement,setting,value
"CCCCCCCCCCCC(=O)N[C@@H](CCC(=O)NCCOCCOCC(=O)NCCOCCOCC(=O)NCCCC[C@H](NC(=O)[C@H](C)NC(=O)[C@@H](NC(=O)[C@H](Cc1ccccc1)NC(=O)[C@H](CCC(=O)O)NC(=O)C(C)(CCCCN)NC(=O)[C@H](C)NC(=O)[C@H](C)NC(=O)[C@H](CCC(=O)O)NC(=O)CNC(=O)[C@H](CCC(=O)O)NC(=O)[C@H](CC(C)C)NC(=O)[C@H](Cc1ccc(O)cc1)NC(=O)[C@H](CCCCNC(=O)COCCOCCNC(=O)COCCOCCNC(=O)CC[C@H](NC(=O)CCCCCCCCCCC)C(=O)O)NC(=O)[C@H](CO)NC(=O)[C@@H](NC(=O)[C@H](CC(=O)O)NC(=O)[C@H](CO)NC(=O)[C@@H](NC(=O)C(C)(Cc1ccccc1)NC(=O)[C@H](CO)NC(=O)CNC(=O)[C@H](CCC(=O)O)NC(=O)C(C)(C)NC(=O)[C@@H](N)Cc1c[nH]cn1)[C@@H](C)O)C(C)C)[C@@H](C)CC)C(=O)N[C@H](C(=O)N[C@H](C(=O)N[C@@H](CCC(=O)O)C(=O)NCC(=O)NCC(N)=O)C(C)C)C(C)C)C(=O)O (stereo partly drawn) [SEQ ID NO: 5, Free-H-[AIB]-EGS-[αMePhe]-TSDVSK[(PEG2)2-γE-Lauroyl]-YLEGEAA-[αMeLys]-EFIAK[(PEG2)2-γE-Lauroyl]-VVEGG-amide]",Permeability (%),[1]; 5.0 mg/mL Sodium Chenodeoxycholate,3.2%
same,Permeability (%),[1]; 25 mg/mL Sodium Chenodeoxycholate,10.4%
same,bioavailability,"[2]; Beagle, po, IntelliCap, Distal small bowel, 0.81 mg/kg, 12 mg/mL peptide, 25 mg/mL Na CDC, 12.5 mg/mL PG, pH 8.0",0.3%
same,bioavailability,"[2]; Beagle, po, IntelliCap, Proximal colon, 0.85 mg/kg, 12 mg/mL peptide, 25 mg/mL Na CDC, 12.5 mg/mL PG, pH 8.0",2.6%
same,bioavailability,"[2]; Beagle, po, IntelliCap, Proximal small bowel, 0.86 mg/kg, 12 mg/mL peptide, 25 mg/mL Na CDC, 12.5 mg/mL PG, pH 8.0",0.5%
same,F,[2]; [4],100%
same,bioavailability,"[2]; beagle, sc, Subcutaneous, 0.03 mg/kg, 0.3 mg/mL peptide in 50 mM Tris, 150 mM Mannitol, 0.02% PS80, pH 8.0",87%
same,AUC(0-t),[2]; [5],166 ng·h/mL
same,Cmax,[2]; [5],51 ng/mL
same,Tmax,[2]; [5],15 min
same,AUC(0-t),[2]; [6],1500 ng·h/mL
same,Cmax,[2]; [6],301 ng/mL
same,Tmax,[2]; [6],15 min
same,AUC(0-t),[2]; [7],297 ng·h/mL
same,Cmax,[2]; [7],75 ng/mL
same,Tmax,[2]; [7],15 min
same,AUC(0-t),[2]; [4],2000 ng·h/mL
same,Cmax,[2]; [4],449 ng/mL
same,Tmax,[2]; [4],15 min
same,AUC(0-t),[2]; [8],1770 ng·h/mL
same,Cmax,[2]; [8],144 ng/mL
same,Tmax,[2]; [8],240 min
CCCOC(=O)c1cc(O)c(O)c(O)c1 [Propyl Gallate],solubility,"[3]; pH 5, aqueous buffer, thermodynamic from solid",3000 µg/mL
same,solubility,"[3]; pH 6, aqueous buffer, thermodynamic from solid",3000 µg/mL
same,solubility,[3]; pH 7,3300 µg/mL
same,solubility as a function of pH (in words),[3]; pH 7.5,low solubility at pH 7.5 and above
same,solubility,"[3]; pH 7.5, aqueous buffer, thermodynamic from solid",< 250 µg/mL
same,solubility,"[3]; pH 8, aqueous buffer, thermodynamic from solid",< 250 µg/mL
same,solubility,"[3]; pH 9, aqueous buffer, thermodynamic from solid",< 250 µg/mL
C[C@H](CCC(=O)[O-])[C@H]1CC[C@H]2[C@@H]3[C@H](O)C[C@@H]4C[C@H](O)CC[C@]4(C)[C@H]3CC[C@]12C.[Na+] [Sodium Chenodeoxycholate],solubility,[3]; pH 5.5,>200000 µg/mL

# Source: patent US11173124B2, “Oral delivery of GLP-1 peptide analogs” (MEDIMMUNE LIMITED, priority 2017, dated 2021)
